Assay results reported in US20220175777A1, “Inhibitors of Multidrug Resistance Transporter P-Glycoprotein” (Southern Methodist University, priority 2014, published 2022).

Tests used:
[1] = molecular target: Normal Human MDR1 P-glycoprotein (Homo sapiens, UniProt P08183); experiment: ATP hydrolysis by human P-gp assembled into membrane nanodiscs; assay type: biochemical; conditions: human MDR1 P-gp in nanodiscs
Description: To assess whether the observed discrepancies of compounds stimulating basal P-gp ATPase activity but not being transport substrates of the human pump in the cell culture assessments were due to the fact that these biochemical assays used a cysteineless variant of the mouse MDR3 P-glycoprotein, the experiments were repeated using normal human MDR1 P-gp. In order to stabilize the human protein for the activity assays, the protein was assembled into membrane nanodiscs as described herein.

[2] = molecular target: T1, Cysteineless Mouse MDR3 P-glycoprotein (Mus musculus, UniProt P21447, C1070A/C1121A/C1223A/C133A/C427A/C638A/C669A/C713A/C952A); experiment: SL-ATP binding to P-gp by ESR spectroscopy; conditions: for Maximum ATP binding mol SL-ANP bound/mol P-gp: SL-ATP titration in presence of compound
T1 construct: made in house; host or cells: Pichia pastoris
T1 sequence (P21447 whole entry C133A/C427A/C638A/C669A/C713A/C952A/C1070A/C1121A/C1223A): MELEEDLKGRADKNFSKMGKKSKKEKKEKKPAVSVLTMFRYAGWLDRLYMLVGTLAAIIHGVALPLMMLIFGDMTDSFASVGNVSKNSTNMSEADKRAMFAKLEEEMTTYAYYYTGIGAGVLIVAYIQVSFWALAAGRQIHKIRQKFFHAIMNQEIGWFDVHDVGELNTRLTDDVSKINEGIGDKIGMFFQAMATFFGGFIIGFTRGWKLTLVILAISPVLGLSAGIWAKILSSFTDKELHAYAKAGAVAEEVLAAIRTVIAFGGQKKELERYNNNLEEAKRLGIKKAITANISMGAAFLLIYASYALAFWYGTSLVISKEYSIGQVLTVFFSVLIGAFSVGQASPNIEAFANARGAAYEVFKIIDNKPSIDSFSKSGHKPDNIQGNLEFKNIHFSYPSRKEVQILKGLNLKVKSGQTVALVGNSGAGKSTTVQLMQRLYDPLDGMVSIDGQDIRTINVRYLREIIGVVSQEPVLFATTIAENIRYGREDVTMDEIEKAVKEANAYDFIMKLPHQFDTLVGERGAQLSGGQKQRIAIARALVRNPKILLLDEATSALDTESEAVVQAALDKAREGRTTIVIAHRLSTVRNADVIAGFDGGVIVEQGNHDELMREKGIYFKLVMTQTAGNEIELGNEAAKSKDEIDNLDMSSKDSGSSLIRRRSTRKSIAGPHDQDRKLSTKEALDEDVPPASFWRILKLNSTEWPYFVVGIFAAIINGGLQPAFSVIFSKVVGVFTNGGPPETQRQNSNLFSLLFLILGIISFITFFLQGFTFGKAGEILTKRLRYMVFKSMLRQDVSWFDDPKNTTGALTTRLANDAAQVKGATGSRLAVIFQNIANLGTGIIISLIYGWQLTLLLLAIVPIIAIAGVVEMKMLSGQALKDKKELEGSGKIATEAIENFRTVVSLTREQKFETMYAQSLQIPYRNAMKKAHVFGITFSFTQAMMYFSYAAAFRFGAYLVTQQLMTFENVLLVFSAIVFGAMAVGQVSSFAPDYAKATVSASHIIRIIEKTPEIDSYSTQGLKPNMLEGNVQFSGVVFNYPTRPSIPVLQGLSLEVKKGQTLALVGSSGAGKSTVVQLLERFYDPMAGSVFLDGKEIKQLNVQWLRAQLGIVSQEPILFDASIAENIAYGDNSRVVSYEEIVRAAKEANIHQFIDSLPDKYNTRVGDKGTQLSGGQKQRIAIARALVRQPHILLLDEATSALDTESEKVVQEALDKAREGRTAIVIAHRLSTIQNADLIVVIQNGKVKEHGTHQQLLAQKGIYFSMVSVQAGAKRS
Description: Determination of the possible mode of ATP hydrolysis inhibition by the identified P-glycoprotein inhibitors. The mode of hydrolysis of ATP by P-glycoprotein was investigated by measuring the maximal binding stoichiometry and binding affinity of an analog of ATP, SL-ATP, and by Electron Spin Resonance (ESR) spectroscopy, similar to in both the presence and absence of the identified inhibitors.
The high-field signal of the freely mobile, unbound SL-ATP is compared and is used to calculate the amount of ATP-analog bound to P-glycoprotein. Binding of SL-ATP in the absence of any P-glycoprotein inhibitor saturated at about 2 mol of SL-nucleotide bounds per mol of P-glycoprotein.
FIGS. 2A-2D are plots showing the effects of P-glycoprotein ATP hydrolysis inhibitors on nucleotide binding. Between 30 and 50 microM Pgp were incubated with 50 microM inhibitor compound. Increasing amounts of SL-ATP were added. The ESR signal of the free SL-ATP in the presence of P-glycoprotein and inhibitor was compared to that in the absence of P-glycoprotein. The graphs represent at least 3 individual studies each using 3 to 5 different P-glycoprotein preparations.

[3] = test system: P-gp overexpressing DU145TXR cells; experiment: Calcein AM accumulation assay; assay type: cell-based, human
Method: Accumulation and cellular retention of calcein AM in P-gp overexpressing prostate cancer cells upon incubation with Group 1 SMU-29 variants. Calcein AM accumulation assays have been used by us previously to evaluate P-gp-substrate accumulation in real time in the presence or absence of P-gp inhibitors^28. For these assays, P-gp overexpressing DU145TXR cells were incubated with the respective inhibitors in the presence of the P-gp substrate, calcein AM. Inhibition of P-gp leads to cellular accumulation of calcein AM and to cleavage of its acetoxymethyl ester groups, resulting in the generation of the highly fluorescent compound, calcein. The anionic calcein is not a substrate of P-gp and remains in the cells. In these assays, the relative fluorescence of cellular calcein was measured over time and the results of these assays are shown in FIG. 10A.
The inventors determined if preferential partitioning of variants in the hydrophobic part of the cell membrane may keep them more distant from the putative allosteric site on P-gp which is located adjacent to the membrane in the cytoplasm, therefore potentially slowing the inhibitory effect of the compounds.

DU145TXR [4] = experiment: Resensitization of DU145TXR to paclitaxel by 29 variants (MTT cell viability); assay type: cell-based, human; conditions: for Fold vs PTX ÷ 29: compared to parental compound 29
Description: The Group 1 ChemGen/docking routine produced variants of P-gp inhibitor 29 resensitize a multidrug resistant, P-gp overexpressing prostate cancer cell line to paclitaxel. The mitochondrial reduction potential of cells is often used as an indicator for cell viability using MTT assays^40-42. Using these assays it was observed that the five Group 1 derivatives of 29 predicted through the ChemGen/docking routine and synthesized here, 216, 227, 231, 541 and 551, re-sensitized the P-gp overexpressing prostate cancer cell line, DU145TXR^33, to the chemotherapeutic, paclitaxel (FIG. 9, showing results of assays at concentrations of 3 μM, 5 μM, 7 μM, and 10 μM).
Cytotoxicity of the chemotherapeutic, paclitaxel (PTX) to P-gp overexpressing prostate cancer cells, DU145TXR, was determined in the absence and presence of the ChemGen designed 29-variants, 216, 227, 231, 541 and 551. For each experimental compound IC50 values of PTX alone or in the presence of inhibitors, fold improvement of PTX sensitivity in the presence of inhibitor, and fold improvement of PTX sensitivity by variants compared to parental compound 29 are given.

[5] = molecular target: T1, Cysteineless Mouse MDR3 P-glycoprotein; experiment: ATP hydrolysis by purified P-glycoprotein, basal and verapamil-stimulated; assay type: biochemical; conditions: for Stimulated ATPase (% of DMSO) / Effect on stimulated ATPase: in the presence of verapamil; for Stimulated ATPase (% of DMSO) / Basal ATPase (% of DMSO): ± standard deviation; for Basal ATPase (% of DMSO) / Effect on basal ATPase: without added transport substrate
Description: The efficacy of molecules identified using in silico methods to function as potential inhibitors of P-glycoprotein was initially tested with regard to their capability to inhibit ATP hydrolysis by purified P-glycoprotein. For this purpose, a well-established activity assay for ATP hydrolyzing enzymes that uses the oxidation of NADH to NAD+ through coupling the reactions of pyruvate kinase and lactate dehydrogenase to the hydrolysis of ATP was adapted to medium throughput conditions on 96 well plates. […] In this set-up, the effects of potential small molecule inhibitors on the ATP hydrolysis activity of P-glycoprotein were tested in duplicate or triplicate and were repeated at least two times using different enzyme preparations.
The P-glycoprotein used in these assays was a close relative of the human P-glycoprotein that is found in mice. A mutant version of the mouse P-glycoprotein where all intrinsic cysteine amino acids had been replaced by alanine residues was recombinantly expressed in the yeast Pichia pastoris and used for these initial tests. […] Prior to testing the ATP-hydrolysis activity, P-glycoprotein was incubated with phosphatidyl choline for stabilization of the enzyme during the assay.
Different concentrations of the to-be-tested small molecules were added and pre-incubated at 37° C. The ATP hydrolysis reaction was then started by adding equal volume of double concentrated ATPase cocktail. The final ATP concentration in the reaction was 2 mM. The reaction was allowed to proceed for 20 minutes, the rate of ATP hydrolysis was calculated using the molar extinction coefficient of NADH, and the one-to-one relationship of ATP hydrolyzed and NADH oxidized.
Evaluation of mode of inhibition of P-glycoprotein by Group 1 and Group 2 variants of compound 29. To assess the mode of inhibition of P-gp by the novel variants of P-gp inhibitor 29, ATP hydrolysis by P-gp was evaluated in the presence or absence of the variants. […] Murine P-gp (MDR3) expressed in Pichia pastoris that had all naturally occurring cysteines replaced with alanine, was used^45, 46. It is widely assumed that the ATP hydrolytic rate of P-gp is stimulated in the presence of transport substrates when compared to ATP hydrolysis in the absence of transport substrates. Assays comparing these rates can therefore be useful not only in identifying inhibitors of P-gp catalyzed ATP hydrolysis, but also to potentially infer whether a compound might be a transport substrate if basal ATPase rates are stimulated by the addition of a compound.

P-gp = P-gp (Homo sapiens, UniProt P08183)
Chain of P-gp (P08183 whole entry): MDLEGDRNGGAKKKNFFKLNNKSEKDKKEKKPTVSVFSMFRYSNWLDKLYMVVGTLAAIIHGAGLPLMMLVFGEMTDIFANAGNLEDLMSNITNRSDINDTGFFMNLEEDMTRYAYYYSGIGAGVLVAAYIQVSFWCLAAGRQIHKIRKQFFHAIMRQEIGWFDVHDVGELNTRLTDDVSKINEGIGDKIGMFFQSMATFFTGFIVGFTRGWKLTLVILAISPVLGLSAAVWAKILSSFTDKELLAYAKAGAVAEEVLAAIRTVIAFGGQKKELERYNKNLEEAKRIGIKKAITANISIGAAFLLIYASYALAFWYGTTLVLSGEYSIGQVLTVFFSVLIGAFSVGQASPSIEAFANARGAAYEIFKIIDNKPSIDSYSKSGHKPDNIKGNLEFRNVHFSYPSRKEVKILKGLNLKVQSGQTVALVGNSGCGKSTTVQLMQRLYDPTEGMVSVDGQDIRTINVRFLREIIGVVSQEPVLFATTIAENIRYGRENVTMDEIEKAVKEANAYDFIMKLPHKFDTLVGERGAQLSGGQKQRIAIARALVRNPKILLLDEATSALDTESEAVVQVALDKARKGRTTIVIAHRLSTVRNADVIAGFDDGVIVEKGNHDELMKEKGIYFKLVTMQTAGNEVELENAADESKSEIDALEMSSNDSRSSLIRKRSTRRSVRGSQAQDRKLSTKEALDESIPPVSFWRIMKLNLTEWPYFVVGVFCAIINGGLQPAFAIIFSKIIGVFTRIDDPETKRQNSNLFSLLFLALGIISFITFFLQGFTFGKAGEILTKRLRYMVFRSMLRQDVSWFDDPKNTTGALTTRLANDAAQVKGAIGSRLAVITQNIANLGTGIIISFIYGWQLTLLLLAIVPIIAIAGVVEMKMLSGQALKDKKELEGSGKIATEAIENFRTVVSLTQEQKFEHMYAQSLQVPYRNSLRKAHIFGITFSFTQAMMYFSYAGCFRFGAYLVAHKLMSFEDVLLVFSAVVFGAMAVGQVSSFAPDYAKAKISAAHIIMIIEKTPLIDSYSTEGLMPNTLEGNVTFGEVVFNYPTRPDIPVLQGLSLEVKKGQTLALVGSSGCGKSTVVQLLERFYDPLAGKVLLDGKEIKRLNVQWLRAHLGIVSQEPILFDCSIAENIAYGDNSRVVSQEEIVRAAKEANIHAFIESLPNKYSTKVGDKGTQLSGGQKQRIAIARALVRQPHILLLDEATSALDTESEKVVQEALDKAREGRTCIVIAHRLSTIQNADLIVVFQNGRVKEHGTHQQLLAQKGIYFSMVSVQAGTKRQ
Method: Stimulation of basal ATPase by 29-variants was used as an indicator that a compound may be a P-gp transport substrate. Effects on stimulated P-gp ATPase activity indicated whether a compound directly interfered with ATP usage by the protein (***, p<0.001; **, p<0.01; *, p<0.1; NS, not significant). Quantitative cellular accumulation of 29-variants was performed using LC-MS/MS and is presented as a ratio of the cellular amounts of 29-variants in the presence of P-gp inhibitor, tariquidar, divided by amounts accumulated in its absence. […] Binding of an ATP analog, SL-ATP, to P-gp was used to determine whether ATP binding to P-gp was affected by the 29-variants. Values+/−standard deviations are shown for at least three different P-gp preparations and three independent SL-ATP titration experiments. The values for SL-ATP binding in the presence of 29 were taken directly from Brewer et al. (2014).
Intracellular accumulation of compound 29 variants. Cell accumulation assays for each of the 29 variants were performed as in reference^28 to more directly assess whether the compounds were indeed transport substrates for P-gp.

DU145TXR [6] = experiment: Intrinsic toxicity, MTT survival; assay type: cell-based, human; conditions: in the absence of chemotherapeutic
Method: Percent survival determined by MTT assay calculated relative to cells treated with equal volume DMSO vehicle and represent the mean±SEM from 2-4 separate studies, each study performed in triplicate wells.
The intrinsic in vitro toxicities of identified compounds were evaluated to determine their potential therapeutic window. This was assessed in a noncancerous cell line (HFL1) and the human prostate cancer cell lines DU145 and the MDR sub-line DU145TxR.

Chain of Normal Human MDR1 P-glycoprotein (P08183 whole entry): as above

Basal ATPase (% of DMSO) [1]	Stimulated ATPase (% of DMSO) [1]	Maximum ATP binding mol SL-ANP bound/mol P-gp [2]	Stimulated ATPase (% of DMSO) [5]	Basal ATPase (% of DMSO) [5]	Structure (SMILES)	Cellular calcein accumulation relative to parental compound 29 ([3]; after 6-hour pre-incubation)	Cellular calcein accumulation relative to parental compound 29 ([3]; no preincubation)	Fold vs PTX ÷ 29 (DU145TXR [4]; 5 μM inhibitor)	Fold vs PTX (DU145TXR [4]; 5 μM inhibitor, vs PTX alone)	Fold vs PTX ÷ 29 (DU145TXR [4]; 7 μM inhibitor)	Fold vs PTX (DU145TXR [4]; 7 μM inhibitor, vs PTX alone)	Fold vs PTX ÷ 29 (DU145TXR [4]; 10 μM inhibitor)	Fold vs PTX (DU145TXR [4]; 10 μM inhibitor, vs PTX alone)	also measured
72 ± 9 % of DMSO	27 ± 1 % of DMSO	1.7 ± 0.1 mol SL-ANP bound/mol P-gp	62 ± 5 % of DMSO	150 ± 6 % of DMSO	Cc1cc(C)c(-c2cc(NC(=O)CSc3cccc(NC(=O)c4cncc(Br)c4)c3)n(-c3ccccc3)n2)cc1C [SMU29-551, 5-bromo-N-(3-((2-oxo-2-((1-phenyl-3-(2,4,5-trimethylphenyl)-1H-pyrazol-5-yl)amino)ethyl)thio)phenyl)nicotinamide]	equivalent to 29	marginally higher calcein accumulation than parental compound 29	9.7 Fold	106 Fold	6.6 Fold	236 Fold	3.5 Fold	353 Fold	–
69 ± 8 % of DMSO	64 ± 6 % of DMSO	1.7 ± 0.1 mol SL-ANP bound/mol P-gp	108 ± 2 % of DMSO	105 ± 7 % of DMSO	Cc1cc(C)c(-c2cc(NC(=O)CSCC(=O)c3ccc4c(c3)Cc3ccccc3-4)n(-c3ccccc3)n2)cc1C [SMU29-216]	–	–	1.3 Fold	14 Fold	1 Fold	34 Fold	0.4 Fold	37 Fold	Effect on basal ATPase [1]: inhibitor; Effect on stimulated ATPase [1]: inhibitor; Effect on SL-ANP binding [2]: no; Effect on stimulated ATPase [5]: none; Effect on stimulated ATPase ([5]; listed as 216): did not affect; Effect on basal ATPase [5]: none; Effect on basal ATPase ([5]; listed as 216): did not significantly affect; Cellular accumulation: ratio of plus Tariquidar over no Tariquidar (P-gp): 1.1; Transport substrate for P-gp (P-gp; not told): no
87 ± 9 % of DMSO	66 ± 6 % of DMSO	1.8 ± 0.1 mol SL-ANP bound/mol P-gp	68 ± 7 % of DMSO	101 ± 12 % of DMSO	Cc1cc(C)c(-c2cc(NC(=O)CSc3nnc4c(n3)[nH]c3ccccc34)n(-c3ccccc3)n2)cc1C [SMU29-541, 2-((5H-[1,2,4]triazino[5,6-b]indol-3-yl)thio)-N-(1-phenyl-3-(2,4,5-trimethylphenyl)-1H-pyrazol-5-yl)acetamide]	exceeded 29 significantly	performed relatively equally to 29	9.2 Fold	101 Fold	3.4 Fold	125 Fold	3.4 Fold	125 Fold	Toxicity in cell viability assays (DU145TXR [6]): some toxicity; Fold vs PTX (DU145TXR [4]; 3 μM inhibitor, fold improvement of PTX sensitivity vs PTX alone): 5 Fold
